According to PubChem BioAssay AID256 (DTP/NCI, 2004):
“And” between values parts separate entries of the source, which are not always exact repeats. Identical values can stand only once. Toxic doses and inconclusive results are not listed.

Tested on: CD2F1 mice, L1210 leukemia ip, survival T/C
Assay: NCI In Vivo Anticancer Drug Screen. Data for tumor model L1210 Leukemia (intraperitoneal) in CD2F1 (CDF1) mice
Conditions: higher = longer survival
In short: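 Activity against a transplanted murine tumor was judged by comparing the compound group with a vehicle group. The outcome in the treated animals was divided by that in the controls.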

[1] = endpoint: mean survival time, dose: 100.0 mg/kg/injection, schedule: Q04DX003 (ip), vehicle: saline
[2] = endpoint: mean survival time, dose: 200.0 mg/kg/injection, schedule: Q04DX003 (ip), vehicle: saline
[3] = endpoint: mean survival time, dose: 25.0 mg/kg/injection, schedule: Q04DX003 (ip), vehicle: saline with Tween-80
[4] = endpoint: mean survival time, dose: 50.0 mg/kg/injection, schedule: Q04DX003 (ip), vehicle: saline with Tween-80
[5] = endpoint: mean survival time, dose: 100.0 mg/kg/injection, schedule: Q04DX003 (ip), vehicle: saline with Tween-80
[6] = endpoint: mean survival time, dose: 100.0 mg/kg/injection, schedule: Q01DX009 (ip), vehicle: saline with Tween-80
[7] = endpoint: mean survival time, dose: 200.0 mg/kg/injection, schedule: Q04DX003 (ip), vehicle: saline with Tween-80
[8] = endpoint: mean survival time, dose: 400.0 mg/kg/injection, schedule: Q04DX003 (ip), vehicle: saline with Tween-80

In the case of `CC(C)C(Br)C(Br)c1ccccc1` (stereo not drawn), the T/C [1] is reported as 96 % of control and the T/C [2] is reported as 102 % of control.

In the case of `CN(C)P1(=S)NCC(C(C)(C)C)CO1` (stereo not drawn), the T/C (endpoint: mean survival time, dose: 15.63 mg/kg/injection, schedule: Q01DX001 (ip), vehicle: distilled water + Tween-80) is reported as 103 % of control, the T/C (endpoint: mean survival time, dose: 31.25 mg/kg/injection, schedule: Q01DX001 (ip), vehicle: distilled water + Tween-80) is reported as 103 % of control and the T/C (endpoint: mean survival time, dose: 62.5 mg/kg/injection, schedule: Q01DX001 (ip), vehicle: distilled water + Tween-80) is reported as 103 % of control. The T/C (endpoint: mean survival time, dose: 125.0 mg/kg/injection, schedule: Q01DX001 (ip), vehicle: distilled water + Tween-80) was 97 % of control and the T/C (endpoint: mean survival time, dose: 250.0 mg/kg/injection, schedule: Q01DX001 (ip), vehicle: distilled water + Tween-80) was 92 % of control.

`c1ccc(OCCCNc2ccccn2)cc1` was tested, and the T/C [3] was 92 % of control, the T/C [4] was 103 % of control and the T/C [5] was 92 % of control and 97 % of control.

In the case of `Cc1ccc(C(C)C)c(OCCCBr)c1`, the T/C [3] is reported as 101 % of control, the T/C [4] is reported as 95 % of control and the T/C [5] is reported as 94 % of control and 95 % of control.

For `O=c1[nH]cnc2c1nnn2C1OC(CO)C(O)C1O` (stereo not drawn), the T/C (endpoint: median survival time, dose: 50.0 mg/kg/injection, schedule: Q01DX005 (ip), vehicle: saline) was 121 % of control, the T/C (endpoint: median survival time, dose: 200.0 mg/kg/injection, schedule: Q01DX005 (ip), vehicle: saline) was 156 % of control and the T/C (endpoint: median survival time, dose: 400.0 mg/kg/injection, schedule: Q01DX005 (ip), vehicle: saline) was 160 % of control. For the same molecule, the T/C (endpoint: median survival time, dose: 400.0 mg/kg/injection, schedule: Q01DX005 (ip), vehicle: suspension in saline) was 90 % of control and the T/C (endpoint: median survival time, dose: 800.0 mg/kg/injection, schedule: Q01DX005 (ip), vehicle: saline) was 111 % of control.

In the case of `C=CC/C(C)=C/C=C/C(C)C(=O)O` (stereo not drawn), the T/C [6] is reported as 100 % of control, the T/C [5] is reported as 98 % of control and the T/C (endpoint: mean survival time, dose: 200.0 mg/kg/injection, schedule: Q01DX009 (ip), vehicle: saline with Tween-80) is reported as 94 % of control. For the same molecule, the T/C [7] was 93 % of control, the T/C (endpoint: mean survival time, dose: 400.0 mg/kg/injection, schedule: Q01DX009 (ip), vehicle: saline with Tween-80) was 104 % of control and the T/C [8] was 95 % of control.

For `C/C(=N\N(C)C)C(C)(C)C`, the T/C (endpoint: mean survival time, dose: 75.0 mg/kg/injection, schedule: Q01DX001 (ip), vehicle: saline) was 93 % of control, the T/C (endpoint: mean survival time, dose: 150.0 mg/kg/injection, schedule: Q01DX001 (ip), vehicle: saline) was 100 % of control and the T/C (endpoint: mean survival time, dose: 300.0 mg/kg/injection, schedule: Q01DX001 (ip), vehicle: saline) was 108 % of control.

`CCN(CC)CCN1CC2C3C=CC(C3)C2C1` (stereo not drawn) was tested, and the T/C (endpoint: mean survival time, dose: 25.0 mg/kg/injection, schedule: Q01DX009 (ip), vehicle: saline with Tween-80) was 97 % of control, the T/C (endpoint: mean survival time, dose: 50.0 mg/kg/injection, schedule: Q01DX009 (ip), vehicle: saline with Tween-80) was 100 % of control and the T/C [6] was 102 % of control and 104 % of control.

For `CCCCCCCCCCCCCCCC(=O)N(CCCN(C)C)c1ccc(N(CCCN(C)C)C(=O)CCCCCCCCCCCCCCC)cc1`, the T/C (endpoint: mean survival time, dose: 1.5 mg/kg/injection, schedule: Q01DX009 (ip), vehicle: saline sonified) was 98 % of control, the T/C (endpoint: mean survival time, dose: 3.0 mg/kg/injection, schedule: Q01DX009 (ip), vehicle: saline sonified) was 101 % of control and the T/C (endpoint: mean survival time, dose: 6.0 mg/kg/injection, schedule: Q01DX009 (ip), vehicle: saline sonified) was 98 % of control.

In the case of `CC(Cl)CN(CC(C)Cl)c1ccc(S(=O)(=O)Nc2ncccn2)cc1` (stereo not drawn), the T/C (endpoint: mean survival time, dose: 35.0 mg/kg/injection, schedule: Q01DX009 (ip), vehicle: other) is reported as 114 % of control.

`Cc1c(Cl)cccc1NC(=O)CCl` was tested, and the T/C [5] was 100 % of control, the T/C [7] was 93 % of control and the T/C [8] was 90 % of control.

`CC([NH-])C([NH-])O.O=[N+]([O-])O.O=[N+]([O-])O.[Pt+2]` (stereo not drawn) was tested, and the T/C (endpoint: mean survival time, dose: 12.5 mg/kg/injection, schedule: Q04DX003 (ip), vehicle: saline) was 170 % of control and the T/C (endpoint: mean survival time, dose: 25.0 mg/kg/injection, schedule: Q04DX003 (ip), vehicle: saline) was 158 % of control.

For `O=P(O)(c1cc(Cl)cc(Cl)c1)c1cc(Cl)cc(Cl)c1`, the T/C (endpoint: mean survival time, dose: 18.8 mg/kg/injection, schedule: Q04DX003 (ip), vehicle: saline) was 100 % of control, the T/C (endpoint: mean survival time, dose: 37.5 mg/kg/injection, schedule: Q04DX003 (ip), vehicle: saline) was 100 % of control and the T/C (endpoint: mean survival time, dose: 75.0 mg/kg/injection, schedule: Q04DX003 (ip), vehicle: saline) was 102 % of control.

For `CCCCCCCCCCC(N)C(=O)O` (stereo not drawn), the T/C (endpoint: mean survival time, dose: 100.0 mg/kg/injection, schedule: Q01DX009 (ip), vehicle: saline) was 95 % of control, the T/C [1] was 100 % of control and the T/C (endpoint: mean survival time, dose: 200.0 mg/kg/injection, schedule: Q01DX009 (ip), vehicle: saline) was 92 % of control. For the same molecule, the T/C [2] was 97 % of control, the T/C (endpoint: mean survival time, dose: 400.0 mg/kg/injection, schedule: Q01DX009 (ip), vehicle: saline) was 95 % of control and the T/C (endpoint: mean survival time, dose: 400.0 mg/kg/injection, schedule: Q04DX003 (ip), vehicle: saline) was 96 % of control.
